Data taken from US20190330197A1, “SUBSTITUTED NAPHTHALENE DIIMIDES AND THEIR USE” (UCL Business PLC, priority 2015, published 2019).

Assays:
[1] = system: human telomeric (F21T) G-quadruplex DNA; assay: FRET quadruplex stabilisation assay, F21T; format: binding; conditions: compound at 1 μM, 60 mM potassium cacodylate buffer pH 7.4
Description: (§1) The ability of the naphthalene diimide compounds to stabilize quadruplex DNA sequences was investigated using a fluorescence resonance energy transfer (FRET) assay modified to be used as a high-throughput screen in a 96-well format. Several quadruplex sequences were studied (including the human telomeric G-quadruplex DNA sequence 5′-FAM-d(GGG[TTAGGG]3)-TAMRA-3′ and the duplex sequence 5′-FAM-d[…]-HEG-[…]-TAMRA-3′ (HEG linker: [(—CH2—CH2—O—)6.
(§2) The labelled oligonucleotides have attached to them the donor fluorophore FAM: 6-carboxyfluorescein and the acceptor fluorophore TAMRA: 6-carboxytetramethylrhodamine. The FRET probe sequences were diluted from stock to the correct concentration (400 nM) in a 60 mM potassium cacodylate buffer (pH 7.4) and then annealed by heating to 85° C. for 10 min, followed by cooling to room temperature in the heating block. The compound was stored as a 10 mM stock solution in DMSO; final solutions (at 2× concentration) were prepared using 10 mM HCl in the initial 1:10 dilution, after which 60 mM potassium cacodylate buffer (pH 7.4) was used in all subsequent steps. The maximum HCl concentration in the reaction volume (at a ligand concentration of 20 μM) is thus 200 μM, well within the range of the buffer used. Relevant controls were also performed to check for interference with the assay. 96-Well plates (MJ Research, Waltham, Mass.) were prepared by aliquoting 50 μl of the annealed DNA into each well, followed by 50 μl of the compound solutions. Measurements were made on a DNA Engine Opticon (MJ Research) with excitation at 450-495 nm and detection at 515-545 nm. Fluorescence readings were taken at intervals of 0.5° C. in the range 30-100° C., with a constant temperature being maintained for 30 s prior to each reading to ensure a stable value. Final analysis of the data was carried out using a script written in the program Origin 7.0 (OriginLab Corp., Northampton, Mass.). The advanced curve-fitting function in Origin 7.0 was used for calculation of ΔTm values. All determinations were performed in triplicate or better. Esds in ΔTm are ±0.1° C.

[2] = system: Hsp90A sequence from the HSP90 promoter; assay: FRET quadruplex stabilisation assay, Hsp90A; format: binding; conditions: compound at 1 μM, 60 mM potassium cacodylate buffer pH 7.4
Description: as §1, §2

[3] = system: Hsp90B sequence from the HSP90 promoter; assay: FRET quadruplex stabilisation assay, Hsp90B; format: binding; conditions: compound at 1 μM, 60 mM potassium cacodylate buffer pH 7.4
Description: as §1, §2

[4] = system: Kras21 sequence from the promoter region of the kras gene; assay: FRET quadruplex stabilisation assay, Kras21; format: binding; conditions: compound at 1 μM, 60 mM potassium cacodylate buffer pH 7.4
Description: as §1, §2

[5] = system: Tloop (representing duplex DNA); assay: FRET assay, Tloop duplex DNA; format: binding; conditions: compound at 1 μM, 60 mM potassium cacodylate buffer pH 7.4
Description: as §1, §2

A549 (lung cancer) cells = assay: SRB growth inhibition, A549; format: cell-based, human; conditions: 96 hr, SRB assay; read-out: short-term 96 hr IC50 A549
Description: (§3) Human cancer cell lines and the somatic human cell line WI-38 (lung fibroblast) were purchased from the American Type Culture Collection. Cell lines were maintained in appropriate medium supplemented with 10% foetal bovine serum (Invitrogen, UK), 2 mM L-glutamine (Invitrogen, Netherlands), and other components as specified by the suppliers. Cell lines were maintained at 37° C., 5% CO2 and routinely passaged. Drugs were dissolved in DMSO and filtered through 0.22 μm pore-size filter units before addition to cell line appropriate media. Cellular growth inhibition was measured using the sulforhodamine B (SRB) assay in 96 well plates. Fifty percent inhibitory concentrations (IC50) were determined by taking the mean absorbance at 540 nm for each drug concentration expressed as a percentage of the absorbance of untreated control wells.

MCF7 (breast) cells = assay: SRB growth inhibition, MCF7; format: cell-based, human; conditions: 96 hr, SRB assay; read-out: short-term 96 hr IC50 MCF7
Description: as §3

[6] = system: Mia-PaCa2 (pancreatic cancer) cells; assay: SRB growth inhibition, MiaPaCa2; format: cell-based, human; conditions: 96 hr, SRB assay; read-out: short-term 96 hr IC50 MiaPaCa2
Description: as §3

[7] = system: Panc1 (pancreatic cancer) cells; assay: SRB growth inhibition, Panc1; format: cell-based, human; conditions: 96 hr, SRB assay; read-out: short-term 96 hr IC50 Panc1
Description: as §3

[8] = system: ALT (Alternative Lengthening of Telomeres) cell line; assay: SRB growth inhibition, ALT; format: cell-based, human; conditions: 96 hr, SRB assay; read-out: short-term 96 hr IC50 ALT
Description: as §3

[9] = system: WI38 (lung fibroblast) cells; assay: SRB growth inhibition, WI38; format: cell-based, human; conditions: 96 hr, SRB assay; read-out: short-term 96 hr IC50 WI38
Description: as §3

[10] = system: subcutaneous xenograft of the pancreatic tumour cell line MiaPaCa-2; assay: Antitumour activity in MiaPaCa-2 subcutaneous xenograft; format: in vivo, CD1 nude mice; conditions: 15 mg/kg IV twice weekly, FIG. 1
Description: Study the therapeutic effect of compound 4c (MM41-tri) in comparison to MM41 and Gemcitabine in CD1 nude mice carrying a subcutaneous xenograft of the pancreatic tumour cell line MiaPaCa-2 (5×10^6 cells in the right flank) grown with Matrigel.
• 1 Inoculate SC 5×10^6 Miapaca-2 cells in the right flank (unsupplemented RPMI+Matrigel). • 2 Wait for tumours to establish subcutaneously (approx. 11 days). • 3 Measure size of the tumours weekly until they reach a mean size of 0.1 cm^3. At this stage of the development of the tumours, mice are ready to begin the therapy study. • 4 Re group mice to form 5 therapeutic groups constituted of 8 mice each, carrying approximately 0.1 cm^3 average of the tumour size per group. • 5 Administered corresponding dose of MM41 or compound 4c or Gemcitabine by IV. • Group 1: 8 mice treated with 15 mg/Kg of Gemcitabine twice weekly dose. • Group 2: 8 mice treated with 15 mg/Kg of MM41 (tetrasubstituted ND compound) twice weekly dose. • Group 3: 8 mice treated with 15 mg/Kg of Compound 4c twice weekly dose. • Group 4: 8 mice treated with 10 mg/Kg of Compound 4c twice weekly dose. • Group 5: 8 control mice treated with saline only twice weekly.

SMILES: O=C1c2ccc3c4c(c(NCCN5CCCC5)cc(c24)C(=O)N1CCCN1CCOCC1)C(=O)N(CCCN1CCOCC1)C3=O [Compound 4c, 2,7-bis(3-morpholinopropyl)-4-((2-(pyrrolidin-1-yl)ethyl)amino)benzo[Imn][3,8]phenanthroline-1,3,6,8(2H,7H)-tetraone]
- ΔTm F21T [1]: 11.8 °C
- ΔTm Hsp90A [2]: 15.7 °C
- ΔTm Hsp90B [3]: 12.7 °C
- ΔTm Kras21 [4]: 11.0 °C
- ΔTm Tloop [5]: 0.6 °C
- IC50 (A549 (lung cancer) cells): 0.024 µM
- IC50 (MCF7 (breast) cells): 0.159 µM
- IC50 [6]: 0.012 µM
- IC50 [7]: 0.022 µM
- IC50 [8]: 0.093 µM
- IC50 [9]: 1.19 µM
- anti-tumour response (tumour growth curve) [10]: highly significant anti-tumour response
